# In patent US5550129A, “Benzopyranones, processes for their preparation and their use” (Willmar Schwabe GmbH & Co., priority 1992, dated 1996):
# What was measured:
# NMDA-induced death [1] = test: NMDA test (25 mg/kg i.v.), protection against NMDA-induced death; assay type: in vivo, male NMRI mice; details: Mus musculus; for ED50: 1 h, oral, one hour before NMDA 25 mg/kg i.v., dose protecting 50% of animals against NMDA-induced death; for responders at 5 mg/kg: 5 mg/kg oral, 1 hr before test, NMDA 25 mg/kg i.v., proportion of surviving animals, read-out: Protective action
# Description: The following method was used to determine the neuroprotective/anticonvulsive activity of the compounds according to the invention of the general formula I: […]
# In order to evaluate the neuroprotective activity, NMDA was administered intravenously in an amount of 25 mg/kg/10 ml to male NMRI mice having a body weight of 20-25 g. As a result of this administration the animals suffered clonic and in some cases also tonic convulsions, leading to death. Prevention of death is used as a criterion of the effectiveness of the investigated compounds.
# All experimental animals had free access to food and water before the experiments. The test and reference substances were administered orally as a suspension in 0.2% agar or water, by means of a pharyngeal probe, in some cases with the aid of solubilizers such as PEG-400. Control animals received the same volume of solvents, if necessary with the addition of solubilizers. One hour after administration of the substance NMDA was administered intravenously and the occurrence of convulsions was observed.
# The results of the tests carried out (NMDA 25 mg i.v.) at doses of 5 mg of the compounds according to the invention per kg body weight compared to known NMDA antagonists are given in Table 1. The percentage proportion of the surviving animals is given as % effect.
# Table 1 also gives as ED-50 values those doses of the substances according to the invention and other NMDA antagonists, which in the NMDA i.v. test (25 mg/kg) one hour after administration protected 50% of the animals against NMDA-induced death.
# The ED-50 values were determined according to the method of Lichtfield and Wilcoxon, J. Pharmacol. exp. Therapeut. 96, 99 (1949), in each case using 4-5 groups of animals each containing 10 animals per dose stage.
# NMDA-induced death [2] = test: as above; assay type: in vivo, male NMRI mice; details: Mus musculus, 1 hr before test, NMDA 25 mg/kg i.v., proportion of surviving animals, read-out: Protective action; for responders at 20 mg/kg: 20 mg/kg oral; for responders at 50 mg/kg: 50 mg/kg oral
Compound,ED50 (NMDA-induced death [1]),responders at 5 mg/kg (NMDA-induced death [1]),responders at 20 mg/kg (NMDA-induced death [2]),responders at 50 mg/kg (NMDA-induced death [2])
"COc1cc(OC)c2c(C)c(CCN3CCN(c4ccccc4OC)CC3)c(=O)oc2c1 [Example 17, 5,7-dimethoxy-3-{2-[4-(2-methoxyphenyl)-1-piperazinyl]ethyl}-4-methyl-2H-1-benzopyran-2-one]",0.2 mg/kg,100%,,
CNC1(c2ccccc2Cl)CCCCC1=O (stereo not shown) [Ketamin],,,0%,
"CCS(=O)(=O)Oc1cc2c(C)c(CCN3CCN(c4ccccc4OC)CC3)c(=O)oc2cc1OC [Example 9, 6-(ethanesulphonyloxy)-7-methoxy-3-(2-[4-(2-methoxyphenyl)-1-piperazinyl]-ethyl)-4-methyl-2H-1-benzopyran-2-one]",0.6 mg/kg,100%,,
"Fc1ccc(C(c2ccc(F)cc2)N2CCN(C/C=C/c3ccccc3)CC2)cc1 [Flunarizin, reference compound]",22.8 mg/kg,,,100%
"COc1ccccc1N1CCN(CCc2c(C)c3c(O)cc(O)cc3oc2=O)CC1 [Example 16, 5,7-dihydroxy-3-{2-[4-(2-methoxyphenyl)-1-piperazinyl]ethyl}-4-methyl-2H-1-benzopyran-2-one]",0.2 mg/kg,100%,,
"CCOc1cc2c(C)c(CCN3CCN(c4ccccc4)CC3)c(=O)oc2cc1OC [Example 6, 6-ethoxy-7-methoxy-4-methyl-3-[2-(4-phenyl-1-piperazinyl)ethyl]-2H-1-benzopyran-2-one]",2 mg/kg,87.5%,,
"CCOc1cc2c(C)c(CCN3CCC(c4ccccc4)CC3)c(=O)oc2cc1OC [Example 5, 6-ethoxy-7-methoxy-4-methyl-3-[2-(4-phenyl-1-piperidinyl)ethyl]-2H-1-benzopyran-2-one]",4.1 mg/kg,75%,,
"CCOc1cc(OCC)c2c(C)c(CCN3CCN(c4ccccc4OC)CC3)c(=O)oc2c1 [Example 18, 5,7-diethoxy-3-{2-[4-(2-methoxyphenyl)-1-piperazinyl]ethyl}-4-methyl-2H-1-benzopyran-2-one]",0.6 mg/kg,100%,,
"COc1cc2oc(=O)c(CCN3CCC(c4ccccc4)CC3)c(C)c2c(OC)c1OC [Example 12, 5,6,7-trimethoxy-4-methyl-3-[2-(4-phenyl-1-piperidinyl)ethyl]-2H-1-benzopyran-2-one]",3.4 mg/kg,75%,,
"CCOc1ccccc1N1CCN(CCc2c(C)c3c(OC)cc(OC)cc3oc2=O)CC1 [Example 20, 3-{2-[4-(2-ethoxyphenyl)-1-piperazinyl]ethyl}-5,7-dimethoxy-4-methyl-2H-1-benzopyran-2-one]",,100%,,
"CCCOc1cc(OCCC)c2c(C)c(CCN3CCN(c4ccccc4OC)CC3)c(=O)oc2c1 [Example 19, 3-{2-[4-(2-methoxyphenyl)-1-piperazinyl]ethyl}-4-methyl-5,7-dipropoxy-2H-1-benzopyran-2-one]",,100%,,
"COc1cc2oc(=O)c(CCN3CCN(c4ccccc4OC)CC3)c(C)c2cc1OC [Example 4, 6,7-dimethoxy-3-{2-[4-(2-methoxyphenyl)-1-piperazinyl)ethyl]-4-methyl-2H-1-benzopyran-2-one]",0.4 mg/kg,100%,,
"CCOc1ccc2c(C)c(CCN3CCN(c4ccccc4OC)CC3)c(=O)oc2c1OCC [Example 11, 7,8-diethoxy-3-{2-[4-(2-methoxyphenyl)-1-piperazinyl]ethyl}-4-methyl-2H-1-benzopyran-2-one]",,100%,,
"COc1ccccc1N1CCN(CCc2c(C)c3ccc(OC)c(OC)c3oc2=O)CC1 [Example 10, 7,8-dimethoxy-3-{2-[4-(2-methoxyphenyl)-1-piperazinyl]ethyl}-4-methyl-2H-1-benzopyran-2-one]",0.4 mg/kg,100%,,
"CCOc1cc2c(C)c(CCN3CCN(c4ccccc4OC)CC3)c(=O)oc2cc1OC [Example 7, 6-ethoxy-7-methoxy-3-{2-[4-(2-methoxyphenyl)-1-piperazinyl]ethyl}-4-methyl-2H-1-benzopyran-2-one]",0.4 mg/kg,100%,,
"COc1cc2oc(=O)c(CCN3CCN(c4ccccc4)CC3)c(C)c2cc1OC [Example 3, 6,7-dimethoxy-4-methyl-3-[2-(4-phenyl-1-piperazinyl)ethyl]-2H-1-benzopyran-2-one]",,50%,,
"COc1cc(OC)c2c(C)c(CCN3CCN(c4ccccc4C)CC3)c(=O)oc2c1 [Example 21, 5,7-dimethoxy-4-methyl-3-{2-[4-(2-methylphenyl)-1-piperazinyl]ethyl}-2H-1-benzopyran-2-one]",,87.5%,,
"COCCOC(=O)C1=C(C)NC(C)=C(C(=O)OC(C)C)C1c1cccc([N+](=O)[O-])c1 (stereo not shown) [Nimodipin, reference compound]",18.5 mg/kg,,87.5%,
"COc1cc2oc(=O)c(CCN3CCN(c4ccccc4OC)CC3)c(C)c2cc1O [Example 2, 6-hydroxy-7-methoxy-3-{2-[4-(2-methoxyphenyl)-1-piperazinyl]ethyl}-4-methyl-2H-1-benzopyran-2-one]",0.2 mg/kg,100%,,
"COc1cc(OC)c2c(C)c(CCN3CCN(c4ccccc4O)CC3)c(=O)oc2c1 [Example 25, 3-{2-[4-(2-hydroxyphenyl)-1-piperazinyl]-ethyl}-5,7-dimethoxy-4-methyl-2H-1-benzopyran-2-one]",,87.5%,,
"COc1cc(OC)c2c(C)c(CCN3CCC(c4ccccc4)CC3)c(=O)oc2c1 [Example 14, 5,7-dimethoxy-4-methyl-3-[2-(4-phenyl-1-piperidinyl)ethyl]-2H-1-benzopyran-2-one]",2.2 mg/kg,87.5%,,
"COc1ccc2c(C)c(CCN3CCN(c4ccccc4OC)CC3)c(=O)oc2c1 [Example 1, 7-methoxy-3-{2-[4-(2-methoxyphenyl)-1-piperazinyl]ethyl}-4-methyl-2H-1-benzopyran-2-one]",0.8 mg/kg,87.5%,,
"COc1ccc(CCN(C)CCCC(C#N)(c2ccc(OC)c(OC)c2)C(C)C)cc1OC (stereo not shown) [Verapamil, reference compound]",17.3 mg/kg,,87.5%,
"COc1cc(OC)c2c(C)c(CCN3CCN(c4ccccc4)CC3)c(=O)oc2c1 [Example 15, 5,7-dimethoxy-4-methyl-3-[2-(4-phenyl-1-piperazinyl)ethyl]-2H-1-benzopyran-2-one]",1 mg/kg,87.5%,,
"COc1cc(OC)c2c(C)c(CCN3CCN(c4ccccc4F)CC3)c(=O)oc2c1 [Example 22, 3-{2-[4-(2-fluorophenyl)-1-piperazinyl]ethyl}-5,7-dimethoxy-4-methyl-2H-1-benzopyran-2-one]",,100%,,
"COc1cc(OC)c2c(C)c(CCN3CCC(O)(c4ccccc4)CC3)c(=O)oc2c1 [Example 24, 3-[2-(4-hydroxy-4-phenyl-1-piperidinyl)ethyl]-5,7-dimethoxy-4-methyl-2H-1-benzopyran-2-one]",,25%,,
"COc1ccc2c(c1)[C@]13CCCC[C@@H]1[C@H](C2)N(C)CC3 [Dextromethorphan, reference compound]",66.7 mg/kg,,,50%
"COc1cc2oc(=O)c(CCN3CCN(c4ccccc4OC)CC3)c(C)c2cc1OC(C)C [Example 8, 7-methoxy-3-{2-[4-(2-methoxyphenyl)-1-piperazinyl]ethyl}-4-methyl-6-(1-methylethoxy)-2H-1-benzopyran-2-one]",0.7 mg/kg,100%,,
"COc1cc2oc(=O)c(CCN3CCN(c4ccccc4)CC3)c(C)c2c(OC)c1OC [Example 13, 5,6,7-trimethoxy-4-methyl-3-[2-(4-phenyl-1-piperazinyl)ethyl]-2H-1-benzopyran-2-one]",,62.5%,,
"COc1cc(OC)c2c(C)c(CCN3CCN(c4cccc(C(F)(F)F)c4)CC3)c(=O)oc2c1 [Example 23, 5,7-dimethoxy-4-methyl-3-{2-[4-(3-trifluoromethylphenyl)-1-piperazinyl]ethyl}-2H-1-benzopyran-2-one]",,25%,,
